The assay concerns the target USP7 (Homo sapiens (Human), UniProt Q93009). As to the kind of experiment: USP7 fluorescence polarisation (FP) assay with ubiquitin-Lys-TAMRA substrate. Conditions: biochemical inhibition; for pIC50: read-out: USP7 IC50 activity (Table 3a, classes); for IC50: unit not given in Table 3b (Table 1 and key of Table 3a use μM), read-out: USP7 IC50 activity (Table 3b). Type of assay: biochemical. The procedure: USP7 activity was monitored in a fluorescence polarisation (FP) homogeneous assay using the isopeptide ubiquitin-Lys-TAMRA substrate (U-558, Boston Biochem). Full-length USP7 was purchased from Boston Biochem (His6-USP7FL, E-519). Unless otherwise stated, all other reagents were purchased from Sigma-Aldrich. Enzymatic reactions were conducted in black flat-bottom low volume polystyrene 384-well plates (Grenier) and 15 μL total volume. USP7 (2.5 nM, 5 μL) was incubated in assay buffer (50 mM HEPES (pH 7.2), 150 mM NaCl, 5 mM DTT, 0.05% BSA (w/v), 0.05% CHAPS) in the presence or absence of inhibitor (5 μL). Inhibitors were stored as 10 mM DMSO stocks in an inert environment (low humidity, dark, low oxygen, room temperature) using a Storage Pod System and serial dilutions were prepared in buffer just prior to the assay (from 200 to 0.003 μM, 11 dp curve). Following incubation at room temperature for 30 min, the enzymatic reactions were initiated by dispensing the Ub substrate (50 nM, 5 μL). FP was measured every 5 min over a period of 1.5 h (within the linear range of the assay) using a Pherastar FSX (BMG Labtech) exciting at 530 nm and measuring the amount of parallel and perpendicular light at 575 nm. The FP signal was subsequently normalised to the control without compound present. Data were plotted and fitted, and the concentrations resulting in 50% inhibition (IC50) were calculated using the non-linear regression curve fitting model using GraphPad Prism.
(In fluorescence polarisation assays a small probe gives low polarisation when free and higher when bound to something large.)

pIC50: −log10 of the molar value. Read-outs that look alike come from different tables or passages of the source.

Sequence of USP7 (Q93009 whole entry): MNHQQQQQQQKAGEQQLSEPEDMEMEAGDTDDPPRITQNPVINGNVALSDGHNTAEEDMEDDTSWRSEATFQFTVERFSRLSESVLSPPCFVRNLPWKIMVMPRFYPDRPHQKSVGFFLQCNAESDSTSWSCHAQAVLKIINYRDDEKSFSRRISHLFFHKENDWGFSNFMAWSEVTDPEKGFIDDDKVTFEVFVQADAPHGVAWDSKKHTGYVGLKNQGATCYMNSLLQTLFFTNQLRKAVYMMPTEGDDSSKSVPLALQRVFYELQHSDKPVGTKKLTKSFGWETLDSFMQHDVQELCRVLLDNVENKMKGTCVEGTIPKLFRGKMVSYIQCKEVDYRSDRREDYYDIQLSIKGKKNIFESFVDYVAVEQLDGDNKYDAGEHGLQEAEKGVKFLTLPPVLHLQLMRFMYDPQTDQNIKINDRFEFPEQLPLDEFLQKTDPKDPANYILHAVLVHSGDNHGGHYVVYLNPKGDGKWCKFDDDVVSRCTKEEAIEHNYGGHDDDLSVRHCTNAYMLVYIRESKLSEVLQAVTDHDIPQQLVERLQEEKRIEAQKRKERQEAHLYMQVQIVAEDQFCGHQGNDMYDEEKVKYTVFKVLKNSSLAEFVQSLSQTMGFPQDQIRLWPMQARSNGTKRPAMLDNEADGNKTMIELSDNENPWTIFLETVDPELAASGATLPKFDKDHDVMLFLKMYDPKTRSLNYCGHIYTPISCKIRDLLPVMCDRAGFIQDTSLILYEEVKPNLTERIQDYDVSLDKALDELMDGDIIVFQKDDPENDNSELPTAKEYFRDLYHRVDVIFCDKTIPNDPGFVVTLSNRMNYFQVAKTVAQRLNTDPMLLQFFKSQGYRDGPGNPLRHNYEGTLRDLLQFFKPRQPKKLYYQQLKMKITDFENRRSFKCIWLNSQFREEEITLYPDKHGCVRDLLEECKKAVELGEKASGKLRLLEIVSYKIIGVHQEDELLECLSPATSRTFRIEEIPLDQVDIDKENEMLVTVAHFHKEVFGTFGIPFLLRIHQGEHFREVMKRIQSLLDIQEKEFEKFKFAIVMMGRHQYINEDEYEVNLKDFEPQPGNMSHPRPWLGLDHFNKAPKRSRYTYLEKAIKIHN

Take `CC1(C)CN[C@@H](c2ccc(-n3c(Cl)cc4c(=O)n(CC5(O)CCN(C(=O)C[C@H](c6ccccc6)C(F)(F)F)CC5)cnc43)cc2)CO1` (mixture of isomers) [Example 10, 6-Chloro-7-(4-((S)-6,6-dimethylmorpholin-3-yl)phenyl)-3-((4-hydroxy-1-((R)-4,4,4-trifluoro-3-phenylbutanoyl)piperidin-4-yl)methyl)-3,7-dihydro-4H-pyrrolo[2,3-d]pyrimidin-4-one and 6-chloro-7-(4-((R)-6,6-dimethylmorpholin-3-yl)phenyl)-3-((4-hydroxy-1-((R)-4,4,4-trifluoro-3-phenylbutanoyl)piperidin-4-yl)methyl)-3,7-dihydro-4H-pyrrolo[2,3-d]pyrimidin-4-one]: the pIC50 was above 7.00 and the IC50 is 0.017 µM.

Turning to `O=C(C[C@H](c1ccccc1)C(F)(F)F)N1CCC(O)(Cn2cnc3c(cc(Cl)n3-c3ccc([C@H]4COCCN4)c(Cl)c3)c2=O)CC1` (mixture of isomers) [Example 86, 6-Chloro-7-(3-chloro-4-((S)-morpholin-3-yl)phenyl)-3-((4-hydroxy-1-((R)-4,4,4-trifluoro-3-phenylbutanoyl)piperidin-4-yl)methyl)-3,7-dihydro-4H-pyrrolo[2,3-d]pyrimidin-4-one and 6-chloro-7-(3-chloro-4-((R)-morpholin-3-yl)phenyl)-3-((4-hydroxy-1-((R)-4,4,4-trifluoro-3-phenylbutanoyl)piperidin-4-yl)methyl)-3,7-dihydro-4H-pyrrolo[2,3-d]pyrimidin-4-one (1:1)], the pIC50 is 6.60 to 7.00 and the IC50 was 0.134 µM.

Turning to `O=C(C[C@H](c1ccccc1)C(F)(F)F)N1CCC(O)(Cn2cnc3c(cc(Cl)n3-c3ccc([C@H]4COCCN4)c(C(F)(F)F)c3)c2=O)CC1` (mixture of isomers) [Example 87, 6-Chloro-3-((4-hydroxy-1-((R)-4,4,4-trifluoro-3-phenylbutanoyl)piperidin-4-yl)methyl)-7-(4-((S)-morpholin-3-yl)-3-(trifluoromethyl)phenyl)-3,7-dihydro-4H-pyrrolo[2,3-d]pyrimidin-4-one and 6-chloro-3-((4-hydroxy-1-((R)-4,4,4-trifluoro-3-phenylbutanoyl)piperidin-4-yl)methyl)-7-(4-((R)-morpholin-3-yl)-3-(trifluoromethyl)phenyl)-3,7-dihydro-4H-pyrrolo[2,3-d]pyrimidin-4-one (1:1)], the pIC50 is 5.70 to 6.60 and the IC50 was found to be 0.292 µM.

Regarding `C[C@H]1CN[C@H](c2ccc(-n3c(Cl)cc4c(=O)n(CC5(O)CCN(C(=O)C6(C)CC6)CC5)cnc43)cc2)CO1` (racemic) [Example 1, rac-6-Chloro-3-((4-hydroxy-1-(1-methylcyclopropane-1-carbonyl)piperidin-4-yl)methyl)-7-(4-((3R,6S)-6-methylmorpholin-3-yl)phenyl)-3,7-dihydro-4H-pyrrolo[2,3-d]pyrimidin-4-one], the pIC50 is above 7.00 and the IC50 came out at 0.03 µM.

For the compound `C[C@H]1COC[C@@H](c2ccc(-n3c(Cl)cc4c(=O)n(CC5(O)CCN(C(=O)C6(C)CC6)CC5)cnc43)cc2)N1` (racemic) [Example 2, rac-6-Chloro-3-((4-hydroxy-1-(1-methylcyclopropane-1-carbonyl)piperidin-4-yl)methyl)-7-(4-((3R,5S)-5-methylmorpholin-3-yl)phenyl)-3,7-dihydro-4H-pyrrolo[2,3-d]pyrimidin-4-one], the pIC50 is above 7.00 and the IC50 was 0.046 µM.

Turning to `O=C(c1ccc(Cl)cc1)N1CCC(O)(Cn2cnc3c(cc(Cl)n3-c3ccc([C@@H]4CO[C@@H](C(F)(F)F)CN4)cc3)c2=O)CC1` (racemic) [Example 9, rac-6-Chloro-3-((1-(4-chlorobenzoyl)-4-hydroxypiperidin-4-yl)methyl)-7-(4-((3R,6R)-6-(trifluoromethyl)morpholin-3-yl)phenyl)-3,7-dihydro-4H-pyrrolo[2,3-d]pyrimidin-4-one], the pIC50 is 5.70 to 6.60 and the IC50 is 0.42 µM.

The pIC50 is the negative decadic logarithm of the IC50, by convention in mol/L. Usually IC50 stands for the midpoint of a concentration-inhibition curve.
